From patent US7220784B2, “Substituted stilbenes and their reactions” (priority 2000, dated 2007)

Legend:
Maximum tolerated dose = conditions: mouse, in vivo; mice
From the text: The in vitro studies reported in Table 11 illustrate the structure requirements necessary for biological activity. Modifications of the A ring have shown that the methoxy groups can be replaced by alkoxy or alkyl (28,31a,32a) whilst retaining their ability to inhibit assembly of isolated tubulin. Similarly, molecules with alkyl substituents on the ethene bridge (19,20,46) retain activity both as inhibitors of tubulin assembly and are growth inhibitory in vitro. The pharmacophore consists of a stilbene in a cis configuration with a small alkyl or O-alkyl substituent at the 4-position of the B ring. […] These agents show good activity in the shape-change (permeability) assay. This test is used as an in vitro assay of vascular damage. […] 97–64H was given at either ⅔ of the maximum tolerated dose (MTD=200 mg/kg) or at ¾ of the MTD to mice bearing liver metastatic T50:80 tumours. Tumours were removed and examined for evidence of vascular damage at 2 hr and 4 hr following drug administration. Similarly a dose equivalent to ¾ of the MTD was administered and the tumours examined 24 hr and 48 hr following administration of drug. […] These effects are seen within 2 hours.

[1] = Pharmacokinetic profile in mice; type: in vivo; conditions: 200 mg/kg
[2] = test system: H460 human lung cancer xenografts; assay: Anti-tumour efficacy in xenografts of H460 human lung cancer; type: in vivo, mice; conditions: H460 human lung cancer xenograft
Method: (2) Competition for the colchicine binding site on tubulin. The figure quoted represents the % of ^3H-colchicine bound following co-incubation of test compound and ^3H-cochicine with isolated tubulin. Where ester pro-drugs were used the experiments were carried out in the presence and absence of porcine liver esterase. • (3) Cytotoxicity/growth inhibition assay. This was carried out by the MTT assay. • (4) Permeability (shape-change) assay in endothelial cells. This was carried out using a method based on that of Watts et al. (Anticancer Res., 17, 71–75, (1997)). This involved the diffusion of a fluorescently labelled dextran through a barrier of endothelial cells (HUVEC) grown to confluence on a porous membrane. […] The anti-vascular effects of the agents were monitored by either positron emission tomography (PET) or by histologogical examination following treatment of mice bearing T50:80 murine breast tumours, or H460 human lung tumours. • (6) Anti-tumour efficacy of agents was determined in xenografts of H460 human lung cancer. Animals (n=5) were trated either with 5 daily injections and tumour size measured with time following treatment. • (7) The pharmacokinetic profile of agents was determined in mice following injection with drug. Blood was taken at various times following treatment and analysed by HPLC with UV detection. […]

[3] = test system: H460 human lung xenograft; assay: Tumour damage in H460 human lung xenograft grown subcutaneously; type: in vivo; conditions: 0.75×MTD, i.p., twenty four hours following injection
Method: The effect of compounds 97–64H and 97–96 (quinone compound) was tested on H460 human lung xenograft grown subcutaneously by injecting equitoxic doses of the compounds (0.75×MTD).

Question: With `COc1ccc(C=Cc2cc(OC)c(OC)c(OC)c2)cc1F` [Compound 97-64H] as the compound, how does the MTD (Maximum tolerated dose) read?
Answer: 200 mg/kg

Question: What about the Cmax ([1]; mouse, in vivo, po) of the same compound?
Answer: 1.49 µg/mL

Question: And the half-life ([1]; mouse, in vivo, po, absorption half life)?
Answer: 15 min

Question: And the half-life ([1]; mouse, in vivo, po, elimination half life)?
Answer: 32 min

Question: What about the “concentration achieved in vivo” value ([1]; oral) of the same compound?
Answer: 1490 µg/mL

Question: And the “concentration achieved in vivo (molar)” value ([1]; oral)?
Answer: 4600 µM

Question: And the “anti-tumour activity in vivo” value [2]?
Answer: shows anti-tumour activity in vivo

Question: What about the tumour damage [3] of the same compound?
Answer: extensive damage to the tumours
